According to patent US10653698B2, “Methods of improving myocardial performance in Fontan patients using udenafil compositions” (priority 2014, dated 2020):
Read-outs that look alike come from different tables or passages of the source.

Tests used:
[1] = test system: adolescents with single ventricle physiology after Fontan palliation; assay type: in vivo, human
Protocol: A Phase I/II dose escalation trial of Udenafil in adolescents with single ventricle physiology after Fontan palliation was conducted. […] The 36 subjects enrolled in the trial were comprised of 6 cohorts, as described in Table 1. The goals for this trial were to assess the safety of udenafil at multiple dose levels over a five-day period, the pharmacokinetic profile of udenafil in adolescents with Fontan physiology, and the short-term effect of udenafil on pharmacodynamic measures of exercise capacity, ventricular performance, and vascular function. Multiple doses of udenafil or a pharmaceutically acceptable salt thereof were administered to male and female Fontan patients who are 14-18 years of age. Inclusion Criteria for the trial were: • Males and females with Fontan physiology who are 14-18 years of age. • Willingness to return to center to complete blood draws and exercise tests as described in the study protocol. • Patients must agree to abstain from alcohol, caffeinated beverages, and grapefruit juice for the duration of the trial. • Informed assent from subject and informed consent from parent/legal guardian as appropriate. […] The purpose of this example was to describe and evaluate the safety of the udenafil compositions administered in the study described in Example 1. Tables 3-6 present numbers of subjects reporting at least one AE; data are presented by treatment group. The counts are presented by AE category (Table 3) and by preferred term (Table 6). Tables 3-6 report all AEs by category (Table 3), serious AEs (Table 4), non-serious AEs (Table 5), and all AEs by preferred term (Table 6). […] Tables 9-12 present AEs by preferred term (similar to Table 6), but additionally report the number of subjects with an AE and the number of AEs (Table 9), the number of AE events/subjects grouped by treatment group and by related (including possibly or probably) vs. not related to the study drug (Table 10), mild vs. moderate/severe (Table 11), and expected vs. unexpected AEs (Table 12).

[2] = test system: adolescents with single ventricle physiology after Fontan palliation; assay: Echocardiographic assessment of ventricular performance (blood pool MPI, tissue Doppler MPI, average isovolumic contraction and relaxation); assay type: in vivo, human; design: Average Isovolumic Contraction, Baseline measurement / Average Isovolumic Contraction, Follow-up measurement: unit not given here; settings: for Average Isovolumetric Relaxation, Follow-up measurement / Average Isovolumetric Relaxation, Baseline measurement: in ms (unit assumed)
Source text: Ventricular performance and cardiac contractility are important measurements that can reveal impairment of cardiovascular health before overt heart failure is present. Ventricular performance can be assessed using echocardiographic methods and quantified via a myocardial performance index or MPI. MPI is an index that combines systolic and diastolic function. Specifically, MPI is defined as the sum of isovolumic contraction time and isovolumic relaxation time divided by the ejection time.
Various versions of MPI are known in the art, and each version of MPI may be used to assess ventricular performance. For instance, MPI indices may include but are not limited to blood pool MPI, tissue doppler MPI, average isovolumetric contraction, and average isovolumetric relaxation.
The primary outcome of ventricular performance with assessed using echocardiographic methods and measured according to a myocardial performance Index (MPI). The MPI is a ventricular geometry-independent measure of combined systolic and diastolic ventricular performance (Charles S. Kleinman et al, 2008—Health and Fitness). It is obtained by indexing the sum of isovolumetric contraction and relaxation time to ejection time.
Table 18 summarizes results for the key outcome from the Echocardiographic Assessment of Ventricular Performance—Blood Pool MPI. Out of the 30 subjects enrolled in the treatment arms of the trial, 27 subjects had paired measurements. The structure of the table is similar to the one for exercise variables.
Tables 19-21 and FIGS. 9-15 report similar results for three other versions of MPI: Tissue Doppler MPI, and Average Isovolumetric Contraction and Relaxation.

## CCCOc1ccc(S(=O)(=O)NCCC2CCCN2C)cc1-c1nc2c(CCC)nn(C)c2c(=O)[nH]1 (stereo not shown) [udenafil]
[1]; 37.5 mg daily
  AE category: Musculoskeletal/skin: 1 (17%) n (%)
[1]; 37.5 mg twice daily
  AE category: Musculoskeletal/skin: 1 (17%) n (%)
[1]; 87.5 mg daily
  AE category: Musculoskeletal/skin: 1 (17%) n (%)
[1]; 87.5 mg twice daily
  AE category: Musculoskeletal/skin: 2 (33%) n (%)
[1]; 125 mg daily
  AE category: Musculoskeletal/skin: 2 (33%) n (%)
[1]; both, human, in vivo, 5 day
  subjects who had expected adverse events: 27
  subjects who had unexpected adverse events: 18
[1]; both, human, in vivo, 5 days
  Subjects with adverse events possibly related to the study drug: 21 subjects
  Subjects with adverse events probably related to the study drug: 11 subjects
  Subjects with adverse events related to the study drug: none
  Subjects with adverse events unrelated to the study drug: 17 subjects
  subjects who had a severe adverse event: 1
  subjects who had mild adverse events: 27
  subjects who had moderate adverse events: 13
[1]; in vivo
  Serious adverse events: No serious AEs were reported
[2]; 37.5 mg daily, N 5
  Average Isovolumetric Relaxation, Difference, FU − BL: 9.0 ± 11.5
  Average Isovolumic Contraction, Difference, FU − BL: −3.5 ± 50.0
  Average Isovolumic Contraction, Follow-up measurement: 86.4 ± 22.7
  Blood Pool MPI, Difference, FU − BL: −0.052 ± 0.166
  Blood Pool MPI, Follow-up measurement: 0.504 ± 0.187
  Tissue Doppler MPI, Difference, FU − BL: −0.052 ± 0.398
  Tissue Doppler MPI, Follow-up measurement: 0.637 ± 0.206
  Average Isovolumetric Relaxation, Follow-up measurement: 94.0 ± 26.7
[2]; 37.5 mg daily, N 6
  Average Isovolumic Contraction, Baseline measurement: 99.2 ± 50.7
  Blood Pool MPI, Baseline measurement: 0.537 ± 0.304
  Tissue Doppler MPI, Baseline measurement: 0.701 ± 0.417
  Average Isovolumetric Relaxation, Baseline measurement: 83.8 ± 16.1
[2]; 37.5 mg twice daily, N 6
  Average Isovolumetric Relaxation, Difference, FU − BL: 0.8 ± 21.2
  Average Isovolumic Contraction, Baseline measurement: 109.4 ± 51.1
  Average Isovolumic Contraction, Difference, FU − BL: −5.8 ± 25.7
  Average Isovolumic Contraction, Follow-up measurement: 103.6 ± 32.4
  Blood Pool MPI, Baseline measurement: 0.496 ± 0.150
  Blood Pool MPI, Difference, FU − BL: −0.003 ± 0.102
  Blood Pool MPI, Follow-up measurement: 0.494 ± 0.087
  Tissue Doppler MPI, Baseline measurement: 0.818 ± 0.361
  Tissue Doppler MPI, Difference, FU − BL: −0.089 ± 0.142
  Tissue Doppler MPI, Follow-up measurement: 0.729 ± 0.230
  Average Isovolumetric Relaxation, Baseline measurement: 100.8 ± 32.3
  Average Isovolumetric Relaxation, Follow-up measurement: 101.6 ± 40.0
[2]; 87.5 mg daily, N 6
  Average Isovolumetric Relaxation, Difference, FU − BL: −6.9 ± 10.1
  Average Isovolumic Contraction, Baseline measurement: 122.4 ± 36.7
  Average Isovolumic Contraction, Difference, FU − BL: −7.4 ± 26.5
  Average Isovolumic Contraction, Follow-up measurement: 115.0 ± 32.9
  Blood Pool MPI, Baseline measurement: 0.588 ± 0.158
  Blood Pool MPI, Difference, FU − BL: −0.076 ± 0.144
  Blood Pool MPI, Follow-up measurement: 0.512 ± 0.163
  Tissue Doppler MPI, Baseline measurement: 0.804 ± 0.118
  Tissue Doppler MPI, Difference, FU − BL: −0.089 ± 0.131
  Tissue Doppler MPI, Follow-up measurement: 0.716 ± 0.142
  Average Isovolumetric Relaxation, Baseline measurement: 93.4 ± 11.0
  Average Isovolumetric Relaxation, Follow-up measurement: 86.4 ± 15.3
[2]; 87.5 mg twice daily, N 4
  Average Isovolumetric Relaxation, Difference, FU − BL: 5.2 ± 12.6
  Average Isovolumic Contraction, Baseline measurement: 84.1 ± 20.3
  Average Isovolumic Contraction, Difference, FU − BL: 4.1 ± 12.1
  Tissue Doppler MPI, Baseline measurement: 0.540 ± 0.019
  Tissue Doppler MPI, Difference, FU − BL: 0.060 ± 0.068
  Average Isovolumetric Relaxation, Baseline measurement: 72.3 ± 10.5
[2]; 87.5 mg twice daily, N 5
  Blood Pool MPI, Baseline measurement: 0.548 ± 0.136
  Blood Pool MPI, Difference, FU − BL: −0.118 ± 0.090
[2]; 87.5 mg twice daily, N 6
  Average Isovolumic Contraction, Follow-up measurement: 83.8 ± 26.4
  Blood Pool MPI, Follow-up measurement: 0.410 ± 0.078
  Tissue Doppler MPI, Follow-up measurement: 0.638 ± 0.168
  Average Isovolumetric Relaxation, Follow-up measurement: 82.4 ± 11.4
[2]; 125 mg daily, N 5
  Average Isovolumetric Relaxation, Difference, FU − BL: −5.4 ± 11.1
  Average Isovolumic Contraction, Difference, FU − BL: −8.0 ± 24.6
  Average Isovolumic Contraction, Follow-up measurement: 150.5 ± 60.5
  Blood Pool MPI, Difference, FU − BL: −0.054 ± 0.180
  Blood Pool MPI, Follow-up measurement: 0.696 ± 0.202
  Tissue Doppler MPI, Difference, FU − BL: −0.074 ± 0.141
  Tissue Doppler MPI, Follow-up measurement: 0.822 ± 0.271
  Average Isovolumetric Relaxation, Follow-up measurement: 96.8 ± 17.4
[2]; 125 mg daily, N 6
  Average Isovolumic Contraction, Baseline measurement: 152.4 ± 64.4
  Blood Pool MPI, Baseline measurement: 0.728 ± 0.155
  Tissue Doppler MPI, Baseline measurement: 0.861 ± 0.323
  Average Isovolumetric Relaxation, Baseline measurement: 99.5 ± 25.0
[2]; All subjects, N 26
  Average Isovolumetric Relaxation, Difference, FU − BL: 0.1 ± 14.4
  Average Isovolumic Contraction, Difference, FU − BL: −4.6 ± 28.3
  Tissue Doppler MPI, Difference, FU − BL: −0.056 ± 0.198
[2]; All subjects, N 27
  Blood Pool MPI, Difference, FU − BL: −0.059 ± 0.134
[2]; All subjects, N 28
  Average Isovolumic Contraction, Baseline measurement: 115.6 ± 50.5
  Average Isovolumic Contraction, Follow-up measurement: 107.1 ± 41.3
  Blood Pool MPI, Follow-up measurement: 0.517 ± 0.165
  Tissue Doppler MPI, Baseline measurement: 0.760 ± 0.299
  Tissue Doppler MPI, Follow-up measurement: 0.707 ± 0.201
  Average Isovolumetric Relaxation, Baseline measurement: 91.2 ± 22.2
  Average Isovolumetric Relaxation, Follow-up measurement: 92.0 ± 23.8
[2]; All subjects, N 29
  Blood Pool MPI, Baseline measurement: 0.581 ± 0.197
[2]; some patients, baseline to day 5
  Improvement in Blood Pool MPI: ≤ 21.5%
